# Results: patent publication US7803821B2, “Fungicide N-cycloalkyl-carboxamide, thiocarboxamide and N-substituted-carboximidamide derivatives” (Bayer Cropscience SA, priority 2006, dated 2010)
# Assay: log P by HPLC on reversed-phase column (C18), EEC Directive 79/831 Annex V.A8
# Assay type: physicochemical
# Conditions: C18, 40° C., 0.1% aqueous formic acid and acetonitrile, gradient 10% to 90% acetonitrile
# Protocol: Temperature: 40° C.; Mobile phases: 0.1% aqueous formic acid and acetonitrile; linear gradient from 10% acetonitrile to 90% acetonitrile.
row,logP,SMILES
1,1.05,COc1ccnc(CN(C(=O)c2cn(C)nc2C(F)F)C2CC2)c1OC [Example 114]
2,0.56,COc1ccnc(CN(C(=O)c2cn(C)nc2OC)C2CC2)c1OC [Example 115]
